Measurements as given in patent US20210269440A1 (BETTA PHARMACEUTICALS CO., LTD, priority 2018, published 2021).

Target: T1, PD-1/PD-L1 protein/protein interaction (Homo sapiens, UniProt Q9NZQ7)
T1 construct: Recombinant human PD-L1 protein (19-238) with a His-tag at the C-terminus; purchased AcroBiosystems PD1-H5229 (PD-L1); PD1-H5257 (PD-1)
Test: PD-1/PD-L1 homogenous time-resolved fluorescence (HTRF) binding assay
Experimental: Resolved Fluorescence (HTRF) Binding Assay
The assays were conducted in a standard black 384-well polystyrene plate with a final volume of […]. Inhibitors were first serially diluted in DMSO and then added to the plate wells before the addition of other reaction components. The final concentration of DMSO in the assay was 1%. The assays were carried out at 25° C. in the PBS buffer (pH 7.4) with 0.05% Tween-20 and 0.1% BSA. […] Plates were centrifuged and proteins were preincubated with inhibitors for 40 min. The incubation was followed by the addition of 10 μL of HTRF detection buffer supplemented with Europium cryptate-labeled anti-human IgG (PerkinElmer-AD0212) specific for Fc and anti-His antibody conjugated to SureLight®—Allophycocyanin (APC, PerkinElmer-AD0059H). After centrifugation, the plate was incubated at 25° C. for 60 min. […] Final concentrations in the assay were […] PD1, 10 nM PD-L1, 1 nM europium anti-human IgG and 20 nM anti-His-Allophycocyanin. IC50 determination was performed by fitting the curve of percent control activity versus the log of the inhibitor concentration using the GraphPad Prism 5.0 software.

T1 sequence (Q9NZQ7 19-238): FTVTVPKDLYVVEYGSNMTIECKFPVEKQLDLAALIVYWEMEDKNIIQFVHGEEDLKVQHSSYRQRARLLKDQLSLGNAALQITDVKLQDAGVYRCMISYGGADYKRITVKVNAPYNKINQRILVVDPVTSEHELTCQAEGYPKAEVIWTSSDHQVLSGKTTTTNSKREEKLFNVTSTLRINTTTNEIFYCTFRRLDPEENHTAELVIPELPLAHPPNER

| SMILES | IC50 |
| --- | --- |
| Cc1c(Nc2nccc3cc(CN4CCCCC4C(=O)O)cnc23)cccc1-c1ccc(Cl)c(OCCCN2CCOCC2)c1 (stereo not shown) [Compound 43, 1-((8-((4′-chloro-2-methyl-3′-(3-morpholinopropoxy)-[1,1′-biphenyl]-3-yl)amino)-1,7-naphthyridin-3-yl)methyl)piperidine-2-carboxylic acid] | 2 to 10 nM |
| Cc1c(Nc2nccc3cc(CN4CCCCC4C(=O)O)cnc23)cccc1-c1cccc(OCCCNCC(=O)O)c1C (stereo not shown) [Compound 28, 1-((8-((3′-(3-((carboxymethyl)amino)propoxy)-2,2′-dimethyl-[1,1′-biphenyl]-3-yl)amino)-1,7-naphthyridin-3-yl)methyl)piperidine-2-carboxylic acid] | < 2 nM |
| Cc1c(Nc2nccc3cc(CNC(C)(CO)C(=O)O)cnc23)cccc1-c1cccc(OCCCN2CCOCC2)c1C (stereo not shown) [Compound 13, 2-(((8-((2,2′-dimethyl-3′-(3-morpholinopropoxy)-[1,1′-biphenyl]-3-yl)amino)-1,7-naphthyridin-3-yl)methyl)amino)-3-hydroxy-2-methylpropanoic acid] | < 2 nM |
| Cc1c(Nc2nccc3cc(CN4CCCCC4C(=O)O)cnc23)cccc1-c1cccc(OCC2(CN3CCOCC3)CC2)c1C (stereo not shown) [Compound 54, 1-((8-((2,2′-dimethyl-3′-((1-(morpholinomethyl)cyclopropyl)methoxy)-[1,1′-biphenyl]-3-yl)amino)-1,7-naphthyridin-3-yl)methyl)piperidine-2-carboxylic acid] | 2 to 10 nM |
| Cc1c(Nc2nccc3cc(CN4CCCCC4C(=O)O)cnc23)cccc1-c1cccc(OCCCN2CCC(C(=O)O)CC2)c1C (stereo not shown) [Compound 30, 1-((8-((3′-(3-(4-carboxypiperidin-1-yl)propoxy)-2,2′-dimethyl-[1,1′-biphenyl]-3-yl)amino)-1,7-naphthyridin-3-yl)methyl)piperidine-2-carboxylic acid] | 2 to 10 nM |
| CCN(CC(=O)O)Cc1cnc2c(Nc3cccc(-c4cccc(OCCCN5CCOCC5)c4C)c3C)nccc2c1 [Compound 14, N-((8-((2,2′-dimethyl-3′-(3-morpholinopropoxy)-[1,1′-biphenyl]-3-yl)amino)-1,7-naphthyridin-3-yl)methyl)-N-ethylglycine] | < 2 nM |
| Cc1c(Nc2nccc3cc(CN4CCCCC4C(=O)O)cnc23)cccc1-c1cccc(N(C)CCCN2CCOCC2)c1C (stereo not shown) [Compound 52, 1-((8-((2,2′-dimethyl-3′-(methyl(3-morpholinopropyl)amino)-[1,1′-biphenyl]-3-yl)amino)-1,7-naphthyridin-3-yl)methyl)piperidine-2-carboxylic acid] | > 150 nM |
